Results as given in US20130012527A1, “PREQ1 RIBOSWITCHES AND METHODS AND COMPOSITIONS FOR USE OF AND WITH PREQ1 RIBOSWITCHES” (YALE UNIVERSITY, priority 2007, published 2013).

Legend:
wild-type 80 queC RNA = assay: In-line probing analysis of wild-type 80 queC RNA; assay type: binding, B. subtilis; conditions: for structure modulation: wild-type 80 queC, 200 μM
From the text: This possibility was examined by comparing the ligand binding characteristics of a wild-type queC construct (80 queC) with those of two mutant RNAs in which absolutely conserved cytidine residues were individually replaced with uridines (FIG. 6a). 2,6-diaminopurine was included in the panel of test compounds since it was previously established that the 2-amino group was critical for ligand recognition by the preQ1 aptamer (FIG. 4c). It was therefore anticipated that compounds lacking this moiety, such as adenine or 7-aminomethyl-7-deazaadenine, might not bind detectably, despite their potential for base pairing with a uridyl discriminator residue.
(§1) In-line probing analysis. […] .

[1] = tested on: M1 RNA (80 queC, cytidine 34 replaced with uridine); assay: In-line probing analysis of 80 queC mutant M1; assay type: binding, B. subtilis; conditions: for structure modulation: 200 μM
[2] = tested on: queC RNA construct containing the analogous C34U mutation; assay: In-line probing of a queC RNA construct with the analogous C34U mutation; assay type: binding; conditions: concentrations as high as 1 mM
From the text: as §1

106 queC RNA = assay: Equilibrium dialysis, competition with 3H-guanine; assay type: binding, B. subtilis; conditions: 100 nM 3H-guanine, 20 μM RNA, unlabeled compound at a concentration exceeding that of the RNA
From the text: To provide additional support for a specific physical interaction between preQ1 and the queC RNA motif, competitive binding experiments were done using an equilibrium dialysis apparatus containing two chambers separated by a permeable membrane with a molecular weight cut-off of 5000 Daltons (FIG. 4d). Because guanine is recognized by the queC motif with nanomolar affinity (FIG. 4c), we first added ^3H-guanine and a molar excess of 106 queC RNA individually to the respective chambers. […].
Samples containing either 100 nM ^3H-guanine or 20 μM 106 queC RNA, each prepared in the same buffer solution used for in-line probing, were added in 30 μL volumes to opposite chambers of a DispoEquilibrium Dialyzer (ED-1, Harvard Bioscience). Following equilibration at 25° C. for 10-15 h, aliquots of 5 μL were withdrawn and quantitated with a liquid scintillation counter. For competitive binding experiments, 3 μL of buffer containing 1 mM unlabeled test compound was subsequently delivered to the RNA-containing chamber, while the same volume of buffer was added to the opposite chamber. After another equilibration period, 5 μL aliquots were again removed to assess the distribution of ^3H-guanine.

[3] = target: 52 queC RNA (B. subtilis queC element); assay: In-line probing analysis of 52 queC RNA; assay type: binding; conditions: in-line probing over a range of ligand concentrations, read-out: Kd (apparent)
Description: RNA construct 52 queC (FIG. 4a) was used to examine the degree of ligand selectivity of the B. subtilis queC element. Affinities for various purine compounds were determined by subjecting 5′ ^32P-labeled 52 queC to in-line probing analyses using a range of ligand concentrations, followed by the quantitative analysis of the levels of ligand-dependent structure modulation.
A more detailed understanding of the molecular contacts involved in ligand recognition by 52 queC was obtained by determining the apparent Kd values for a series of purine analogs (FIG. 4c).

SMILES | structure modulation (wild-type 80 queC RNA) | structure modulation ([1]; M1 (C34U)) | competition with 3H-guanine sequestration in the RNA chamber (106 queC RNA) | Kd [3] | also measured
Nc1nc(N)c2[nH]cnc2n1 [2,6-diaminopurine] | Structural changes in this construct are also induced | key changes are observed |  |  | Kd (wild-type 80 queC RNA; 80 queC): > 300 µM; lowest concentration at which alterations in structure are detected (wild-type 80 queC RNA; 80 queC): 10 µM; relative loss in binding affinity ([1]; C34U mutant with 2,6-diaminopurine versus wild-type queC RNA with guanine): more than 600 fold; Kd ([1]; M1 (C34U), data not shown): > 300 µM
NCC1C=Nc2ncnc(N)c21 (stereo not shown) [7-aminomethyl-7-deazaadenine] |  |  |  |  | modulation of RNA structure [2]: fail to modulate the structure
Nc1nc2c(c(=O)[nH]1)CC=N2 [7-deazaguanine] |  |  | competitively reversed |  | 
Nc1ncnc2nc[nH]c12 [adenine] | does not result in structure modulation | failure of adenine to induce any conformational response | did not serve as a competitor |  | binding to M1 RNA ([1]; M1 (C34U), in words): absence of adenine binding
Nc1nc2nc[nH]c2c(=O)[nH]1 [guanine] | structure modulation occurs |  | competitively reversed | ~0.5 µM | 
N#CC1C=Nc2nc(N)[nH]c(=O)c21 (stereo not shown) [preQ0, 7-cyano-7-deazaguanine] |  |  |  | ~0.1 µM | 
